Laboratory results: a melting point compilation (Tetko et al.; mined from patent text by program, amines drawn as free bases though some values may be those of a salt)

melting point [°C] | SMILES
86 to 88 | CCC(CC)N(Cc1ccc(C(=O)O)cc1)S(=O)(=O)c1ccc(C)cc1
146 to 148 | Cc1cccc(-c2[nH]c(C(C)C)nc2-c2cccc(-c3ccc(NC(=O)NN4CCOCC4)cc3)c2)n1
137 | CCCCNc1cc2c(cc1[N+](=O)[O-])OCO2
173 to 174 | COc1cccc(CNC(=O)c2nc3cccc(OCCO)c3c(=O)[nH]2)c1
134 to 136 | C=C(C)C(=O)Nc1nc(CCC)n(Cc2ccc(-c3ccccc3-c3nnn[nH]3)cc2)c1C(=O)OCC
130 to 131 | O=C1c2ccccc2C(=O)N1Cc1ccc(Br)nc1
120 to 130 | COCn1c(-c2nc3c(OC)ccc(N4CCOCC4)c3s2)nc2ccc(C3CCNC3)nc21 (configuration not stated)
214 to 215 | CC(C)(C)CNC(=NC#N)Nc1cccnc1
339 to 343 | O=S1C(c2cccc(-c3ccc(O)c(C45CC6CC(CC(C6)C4)C5)c3)n2)=CN=C1N1CCOCC1 (configuration not stated)
156 to 157 | CCOC(=O)C1=C(COCc2nc(CCN3C(=O)c4ccccc4C3=O)cs2)NC(C)=C(C(=O)OC)C1c1ccccc1Cl (configuration not stated)
140 to 141 | CN(C(=O)OC(C)(C)C)c1cc(Sc2cc(C(C)(C)C)c(O)c(C(C)(C)C)c2)ccc1[N+](=O)[O-]
75 to 95 | CNS(=O)(=O)NCCNC(=O)[C@@H](C[C@H](O)[C@H](C)NC(=O)OC(C)(C)C)C(C)C
241 to 243 | Cc1c(C(=O)O)oc2c(C(C)(C)C)cc(C(C)(C)C)c(O)c12
71 to 74 | CC(C)(C)OC(=O)OCc1ccc(COC(=O)OC(C)(C)C)cc1
179 | O=c1ncc(Cl)cn1CSc1ccc(F)cc1
209 to 210 | CC(=O)OCC1c2c(c3ccccc3c3ccccc23)-c2c1c1ccccc1c1ccccc21
197 to 199 | Oc1cccc(C#Cc2ccc3ccc(Br)cc3n2)c1
50 to 52 | CCCCCCC/C=C\CCCCCCCC(O)CCCNC(C)=O (configuration not stated)
190 to 191 | COc1ccc(OCC(N)=O)c([N+](=O)[O-])c1
151 | O=CNc1cc(-c2ccc(Cl)cc2)n[nH]1
174 to 176 | CN1C(=O)CCC2(C)c3ccc(Sc4ccccn4)cc3CCC12 (single isomer, unassigned; (+))
114 to 115 | CC(C)N(C[C@H](O)[C@H](Cc1ccccc1)NC(=O)OCc1ccccc1)NC(=O)OC(C)(C)C
162 to 164 | C#CCN1C(=O)C(=O)N(c2cc(Cl)ccc2C)C1=S
98 to 99 | Cc1ccc(-c2ccccc2C(=O)NN)cc1
167 to 168 | CCOC(=O)N(CC(=O)O)C(=O)c1c(Br)ccc2c(C(F)(F)F)c(OC)ccc12

melting point [°C] | SMILES
114 to 116 | Clc1cccc(C2CCN(CCCOc3ccc4scnc4c3)CC2)c1Cl
158 | O=C(O)c1cccc(Oc2ncc(C(F)(F)F)cc2Cl)c1
114 to 115 | CCOC(=O)C(C)(C)NC(=O)c1cccc(C2=NC(C)(C)Cc3cc(OC)c4c(c32)CC(C)(C)O4)c1
53 to 63 | CCOCc1nc2c(N)nc3ccccc3c2n1CC1(N)CCOCC1
194 to 195 | O=C1C(=O)c2ccccc2C2=C1SCC1(CCCCC1)O2
113 | CCCCN1CCC(CNC(=O)c2ccc(N)n3cc(Cl)nc23)CC1
188 to 191 | CN1C(=O)CC[C@]2(C)c3ccc(Sc4ccc([N+](=O)[O-])cn4)cc3CC[C@@H]12
209 | CC1(c2cc(-c3nc4ccc(OCc5ccccc5)cc4[nH]3)ccc2OCc2ccccc2)CCCCC1
137 to 138 | Cc1ccccc1Nc1c([N+](=O)[O-])cnc2ccccc12
208 | CC(C)(C)C1=NN(c2ccc(C(=O)O)cc2)C(c2ccc(Cl)cc2)C1 (configuration not stated)
48 to 50 | CC(=O)C1(C)COC(C)(C)OC1
105 to 108 | CCOC(=O)c1nc(O)sc1C(C)=O
90 to 91 | CCOC(=O)/C=C/c1ccc(OCCc2nc(-c3cccc(C)c3)oc2C)cc1
> 250 | COc1cc2c(cn1)OCC21C(=O)N(CC2CCCO2)c2ccccc21 (configuration not stated)
52 to 54 | COC(=O)C(C)Oc1cc(C)ccc1COc1ccc(-n2c(=O)cc(C(F)(F)F)n(C)c2=O)cc1 (configuration not stated)
100 to 103 | COc1ccc(C=NNC(=N)N)cc1OC1CCCC1
163 to 164 | CCCCCC(=O)N1CCN2C[C@@H](c3ccccc3)c3ccccc3[C@@H]2C1 (relative stereo)
128 to 130 | CCOC(=O)Cc1ccc(OCCN2CCN(c3cc(Cl)nnc3Cl)CC2)cc1
132 to 134 | N#CCc1cnc(N)cn1
73 to 75 | COC(=O)C=CC=CCSc1ccc2ccccc2c1
150 | CCC(=O)Oc1cc(-c2nc3cc(F)ccc3s2)ccc1OC
54 to 55 | CCCCCCCCCCCCCCC[C@H]1O[C@@H]1C(=O)OC
203 to 205 | N#Cc1ccc(OCc2ccnnc2)cc1OC(C(=O)O)c1ccccc1Cl (racemic)
87.5 to 88 | CON(C)C(=O)Nc1ccc(OCc2ccc(C(C)C)cc2)cc1
148 to 151 | O=C(O)COc1cc(F)ccc1C(=O)NCc1cccc([N+](=O)[O-])c1

melting point [°C] | SMILES
197 to 198 | CCCCc1nc2c(N)nc3ccccc3c2n1CCCNS(=O)(=O)c1ccc(C)cc1
119 to 120 | CCCOc1ccc(-c2scc(-c3ccccc3Cl)c2CC(=O)NC(=N)n2cccn2)cc1
170 | Cc1nc2ccc([N+](=O)[O-])cn2c(=O)c1CCCl
270 to 272 | C[C@H](Cn1cnc2c(=O)[nH]c(N)nc21)OCP(=O)(O)O
163 to 167 | Cc1cncn1CC#CCN1CCNC1=O
249 to 250 | NC1CCN(c2nc(Nc3ccc(F)cc3F)c(C(=O)O)cc2F)C1 (configuration not stated)
162 to 164 | Cn1nc(C#N)c(Nc2ccc(Br)cc2[N+](=O)[O-])n1
141 to 142 | COc1ccc(C2OC(=O)c3cc(OC)c(OC)c(OC)c32)cc1OC (configuration not stated)
165 | N#CC1=C(c2ccccc2)Nc2n[nH]cc2C1c1cccc(F)c1F (configuration not stated)
177 to 179 | CC1=NSc2c(F)c(F)c(F)c(F)c2N1Cc1ccc(-c2ccccc2C(=O)OC(C)(C)C)cc1
50 to 52 | Cc1oc2cccc(OCC#N)c2c1C
158 to 160 | Clc1ccc(C2CC(n3ccnc3)c3ccccc3N2)cc1 (configuration not stated)
158 | COc1ccc(N(CC(=O)OC(C)(C)C)C(=O)CNC(=O)Nc2cccc(C)c2)cc1
172 to 173 | N/C(=C1/Sc2ccc(Cl)cc2C1=O)c1ccccc1
224 to 225 | Nn1cc(Cl)c(=O)[nH]c1=O
158 to 160 | CCN(CC)CCNc1cccc2c1C(=O)c1cccc(NCCN(CC)CC)c1C2=O
278 to 280 | CCc1cc2c(=O)n3cc(C(N)=O)ccc3nc2s1
214 to 216 | COc1ccc(/C(=C/C=C/C(=O)O)c2cccs2)cc1
304 | O=c1[nH]cnc2sc(Br)cc12
129 to 133 | CCOCc1c(-c2ccccc2)oc2c(C(=O)NCCCN3CCN(c4ccccc4OC)CC3)cccc2c1=O
166 | COCCOc1ccc(/C=C/C(=O)O)c(Oc2ccc(C(F)(F)F)cc2Cl)c1
108 | O=C(C=Cc1ccccc1)CC(=O)c1ccccc1
94 to 95 | CCOc1ccc(-c2nc(C=Cc3ccccc3)cs2)cc1OCC
102 to 104 | CCCCCCCCCCC(=O)NCCCCCCCCCCCC(=O)O
178 to 181 | CCOC(=O)c1ccc(SC)cc1C(=O)OCC

melting point [°C] | SMILES
91 to 93 | COc1cc(N)c(Cl)cc1C(=O)NCC1CCN(CCCCCOc2cccc3ccccc23)CC1
163 to 164 | Cc1ccc(Sc2cc(C(C)(C)C)c(O)c(C(=O)O)c2C)cc1
98 to 99 | ClCc1ccc(OCc2csc(-c3ccccc3)n2)cc1
114 to 116 | CCCOc1cc(OC)c2c(c1)C(=O)c1cccc(OC(C)C)c1-2
102 | CC1OC(Cn2cncn2)(c2ccccc2)C1(C)C (configuration not stated)
96 to 98 | CC(c1ccccc1)c1ccc(N)c([N+](=O)[O-])c1 (configuration not stated)
183 to 184 | COc1ccc2[nH]c(SCc3cc(N)c(Br)cn3)nc2c1
86 | CNc1ccccc1CNC(=O)C1Cc2ccccc2N1S(=O)(=O)c1ccc(-c2cccc(C(F)(F)F)c2)cc1 (configuration not stated)
184 to 186 | COCCNC(=O)Cn1nc(-c2ccccc2O)nc1-c1ccccc1O
138 to 140 | Nc1nc2c(OCCOc3nccnc3N3CCNCC3)cccc2o1
135 to 136 | COc1ccc(-c2nn(CC3CC3)c(=O)cc2-c2ccc(OC)c(F)c2)cc1
97 to 100 | CC(=O)OCc1[nH]c(C(=O)OCc2ccccc2)c(C)c1C(C)=O
194 to 196 | CS(=O)(=O)Nn1c(=O)[nH]c2cc(C(F)(F)F)c(Oc3cccnc3)cc2c1=O
170 to 175 | CC(C)(C)c1nc2cc(N3CCSCC3)c(N)cc2s1
238 to 240 | COc1cc(Br)nc(NC(=O)NS(=O)(=O)c2cccc3c2SCC3)n1
107 to 110 | CC(C)(C)n1ncc(S)c(Br)c1=O
137 to 138 | Clc1cc(Oc2ccc3[nH]ccc3c2)ncn1
58 to 59 | Cc1ccsc1-c1cncc(Br)c1
62 to 64 | CC(C)OC(=S)NC1(N=NC(C)(C)C)CCCCC1
254 to 256 | O=C(O)c1cnc(Nc2ccccc2O)[nH]c1=O
208 to 210 | CCOc1nc2c(C)sc(C(=O)OC)c2n1Cc1ccc(-c2ccccc2)c(-c2nc(=O)o[nH]2)c1
81 to 83 | COc1cccc(C2=C(CO)C(=O)N(C)CC2)c1

SMILES | melting point [°C]
CC12CC(F)C3C4CCC(=O)C=C4CCC3C1CCC2=O (configuration not stated) | 173 to 174
N#Cc1nn(-c2c(Cl)cc(C(F)(F)F)cc2Cl)c(N)c1-c1ccc(F)c(Cl)c1 | 197 to 198
CC(=O)NC(=N[N+](=O)[O-])NCc1ccc(Cl)nc1 | 125 to 126
Cc1cc(C)c(C(=O)P(=O)(CC(C)C)C(=O)c2c(C)cc(C)cc2C)c(C)c1 | 85 to 86
C#CCN(C(C)=O)c1cccc(-c2ccc3nnc(C)n3n2)c1 | 195 to 198
